Measured values as given in article PMC8794255, “Small molecule inhibitor of Igf2bp1 represses Kras and a pro-oncogenic phenotype in cancer cells” (RNA Biology, 2021).

Legend:
La [1] = target: T1, La (Homo sapiens, UniProt P05455); assay: FP counterscreen: La binding to Bcl2 RNA
T1 sequence (P05455 1-408): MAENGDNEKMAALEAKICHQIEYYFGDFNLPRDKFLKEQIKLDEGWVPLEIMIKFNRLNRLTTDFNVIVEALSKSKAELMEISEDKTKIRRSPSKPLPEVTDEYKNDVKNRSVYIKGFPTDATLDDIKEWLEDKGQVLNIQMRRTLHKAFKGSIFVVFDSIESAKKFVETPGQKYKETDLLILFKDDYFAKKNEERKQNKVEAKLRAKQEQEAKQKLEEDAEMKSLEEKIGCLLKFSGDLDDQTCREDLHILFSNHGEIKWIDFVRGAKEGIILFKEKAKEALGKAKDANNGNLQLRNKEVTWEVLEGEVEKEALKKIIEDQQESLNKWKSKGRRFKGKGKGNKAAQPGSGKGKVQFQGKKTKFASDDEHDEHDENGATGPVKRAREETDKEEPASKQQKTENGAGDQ

Igf2bp1 = target: T2, Igf2bp1 (Homo sapiens, UniProt Q9NZI8); assay: Microscale thermophoresis (MST), full-length Igf2bp1; settings: full-length protein, read-out: KD of compound binding to Igf2bp1
T2 construct: Recombinant full-length Igf2bp1 protein was labelled with RED-tris-NTA dye; made in house
Description: Recombinant full-length Igf2bp1 protein was labelled with RED-tris-NTA dye using a Monolith NT His-Tag Labelling Kit (NanoTemper) while RRM12, KH12 and KH34 di-domain peptides were labelled using the Protein Labelling Kit RED NHS 2nd generation (NanoTemper). Labelled proteins were spun at 15,000 g for 5 min to eliminate aggregates. All samples were 2X labelled protein mix of Igf2bp1 (200 nM) in PBST and were combined (1:1) with serial dilutions of compound or Kras6 RNA in binding buffer (10mMTris pH = 7.5, 100 mM NaCl, 0.1 mM EDTA, 0.06% IPEGAL, 0.02 μg/μL tRNA, 2 mM DTT, 0.1 μg/μL heparin) in final volume of 20 μL, room temperature for 15 min. Samples were then loaded into standard capillaries (NanoTemper) and read in the Monolith NT.115 scanner (NanoTemper) using the red filter with reading conditions of 95% LED power and 40% MST power, 5 sec fluorescence before, 30 sec MST on, 5 sec fluorescence after and 25 sec delay between samples. Results were analysed using the MO Control software (NanoTemper) for curve fitting to KD.

La [2] = target: T1, La; assay: MST, La protein; assay type: binding
Igf2bp3 = target: T3, Igf2bp3 (Homo sapiens, UniProt O00425); assay: MST, Igf2bp3; settings: IGF2BP3 50nM, read-out: KD of binding to Igf2bp3
T3 construct: made in house

[3] = test system: LKR-M cells overexpressing human Igf2bp1-GFP; assay: Wound healing assay, LKR-M cells expressing human Igf2bp1-GFP; assay type: cell-based, mouse; settings: 20 μM 7773 vs DMSO
Description: Cells were seeded in 96 IncuCyte® ImageLock plates (20X10^3 cells per well) for 24 hours, to a near confluency of 95%, before the addition of increasing concentrations of compound. After a further 24 hours, wells were scratched using the IncuCyte® 96-well WoundMaker Tool, and the cells cultured for an additional 48 hours using the IncuCyte® S3 Live-Cell Analysis System (Essen BioScience). The plate was imaged at increments of 120 minutes for a period of 48 hours, and then analysed for relative wound healing.

[4] = test system: wild-type luciferase in RKO cells; assay: Control (wild-type) luciferase in RKO cells; assay type: cell-based; settings: 50 μM 7773
Description: The RKO cells were seeded in DMEM with 10% calf serum 24 hrs prior to the transfection. Transfection was done using Lipofectamine 2000 with reporter plasmids and Renilla-luciferase expressing vector (as internal control). After 24 hrs, cells were lysed using passive lysis buffer (Promega catalogue # E1941). The lysates were cleared by centrifugation and its 20 μL volume was mixed with 100 μL of luciferase substrate solution for luminescence recording which was followed by addition of 100 μL of Stop-glo solution (Promega catalogue # E1910) with an additional luminescence reading. Both readings were detected by using GloMax 20/20 Luminometer (Promega), and the final value for each sample was the ratio of their two respective readings. To test the effects of 7773, transfected cells with reporter plasmids were washed with PBS after 24 hrs of transfection and incubated with medium containing 7773.

ES2 cells [5] = assay: qPCR of Igf2bp1 target RNAs in ES2 cells; assay type: cell-based, human
Description: Cells were grown for 12 hours in 12 well plates prior to incubation with the compound at different concentrations for an additional 12 or 24 hours. Total RNA was then extracted using EZ-RNA total RNA isolation kit (Biological Industries) and cDNA prepared from the RNA using the First Strand cDNA Synthesis kit (Quanta bio). Real time PCR was performed with Fast SYBR Green Master Mix (Thermo Fisher Scientific), and cDNA expression analysed with the Bio-Rad CFX Manager 3.1.

[6] = test system: Kras protein in H1299 cells; assay: Western blot of Kras protein in H1299 cells; assay type: cell-based, human; settings: H1299, 10 and 20 μM 7773, 48 hours
Description: Western blots were performed as described. For fluorescent westerns, cell lysates were prepared with phosphatase inhibitors (β-Glycerophosphate and Sodium orthovanadate) and a protease inhibitor (cOmplete™, Mini Protease Inhibitor Cocktail, Roche 04693124001), membranes were read using a Li-Core Odyssey laser scanner, and results analysed using Image Studio Lite software.
The following primary antibodies were used: mouse anti-total ERK (p44/42 MAPK (Erk1/2) L34 F12 Cell Signalling 4696s), mouse anti-Kras (CPTC-KRAS4B-2, DSHB) rabbit anti-dpERK, (p44/42 MAPK, Cell Signalling 4370), rabbit anti-alpha/beta tubulin (Cell Signalling 2148), goat anti-rabbit IgG-HRP (Jackson), goat anti-mouse IgG-HRP (Jackson). Secondary antibodies for fluorescent westerns: donkey anti-mouse 800 (Rockland 610–732-124), goat anti-rabbit 680 (Molecular Probes A21076).

ES2 cells [7] = assay: Cell proliferation assay (Incucyte), ES2; assay type: cell-based, human; settings: ES2, up to 20 μM
Description: ES2, H1299 and HEK293 cells were seeded in a 96 well plate (5X10^3 cells per well) for 24 hours before adding the compound at increasing concentrations. After an additional 24 hours, the plate was incubated in an IncuCyte® S3 Live-Cell Analysis System (Essen BioScience). The wells were filmed for 72 hours, and then analysed for proliferation rate Using IncuCyte® S3 Live-Cell Analysis System (Essen BioScience)

H1299 cells = assay: Growth in soft agar, H1299; assay type: cell-based, human; settings: H1299, 20 μM 7773
Description: Cells were grown for 12 hours in 6 well plates prior to incubation with the compound or DMSO for an additional 48 hours, 2000 cells were suspended in 0.3% agar-complete medium and then seeded in triplicates onto a 0.6% agar-complete medium base in a 6 well plate. After one week, the colonies were fed with 0.3% agar-complete medium, and after 2 additional weeks, imaged and quantified.

T2 sequence (Q9NZI8 whole entry): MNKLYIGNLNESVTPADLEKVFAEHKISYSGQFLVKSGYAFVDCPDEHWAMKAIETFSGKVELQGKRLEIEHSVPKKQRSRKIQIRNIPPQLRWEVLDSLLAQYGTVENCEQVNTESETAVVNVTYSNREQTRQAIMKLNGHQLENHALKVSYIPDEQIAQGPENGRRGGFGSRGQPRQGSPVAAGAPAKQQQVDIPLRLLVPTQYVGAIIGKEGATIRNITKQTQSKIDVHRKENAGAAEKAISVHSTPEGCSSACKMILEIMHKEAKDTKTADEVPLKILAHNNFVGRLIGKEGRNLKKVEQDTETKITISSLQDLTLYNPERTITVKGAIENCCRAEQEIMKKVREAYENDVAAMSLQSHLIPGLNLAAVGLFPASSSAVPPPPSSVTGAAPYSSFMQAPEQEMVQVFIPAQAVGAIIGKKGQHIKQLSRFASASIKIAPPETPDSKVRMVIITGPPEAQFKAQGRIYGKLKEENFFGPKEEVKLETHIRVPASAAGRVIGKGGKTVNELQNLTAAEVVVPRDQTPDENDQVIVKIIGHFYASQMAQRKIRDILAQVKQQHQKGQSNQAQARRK
T3 sequence (O00425 whole entry, species assumed): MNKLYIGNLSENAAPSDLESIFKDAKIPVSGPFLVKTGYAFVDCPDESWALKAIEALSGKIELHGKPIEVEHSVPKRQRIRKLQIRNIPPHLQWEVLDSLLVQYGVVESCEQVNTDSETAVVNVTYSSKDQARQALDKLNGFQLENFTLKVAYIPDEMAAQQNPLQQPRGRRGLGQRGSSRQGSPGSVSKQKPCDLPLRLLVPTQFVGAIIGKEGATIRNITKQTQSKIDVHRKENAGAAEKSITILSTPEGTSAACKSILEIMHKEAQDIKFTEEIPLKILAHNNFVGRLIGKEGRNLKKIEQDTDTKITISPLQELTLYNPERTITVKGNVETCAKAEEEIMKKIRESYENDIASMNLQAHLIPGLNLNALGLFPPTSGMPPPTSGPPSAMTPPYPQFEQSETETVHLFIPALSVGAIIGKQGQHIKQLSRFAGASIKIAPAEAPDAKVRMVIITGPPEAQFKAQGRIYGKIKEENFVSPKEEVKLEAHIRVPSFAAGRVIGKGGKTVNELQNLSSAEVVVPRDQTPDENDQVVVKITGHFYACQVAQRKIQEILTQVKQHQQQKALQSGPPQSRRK

- Effect on control RBP (La) binding to its target (Bcl2 RNA) (La [1]): almost no effect
- IC50 (La [1]; control RNA binding protein, read-out: IC50, inhibition of La binding to Bcl2 RNA): > 100 µM
- Kd (Igf2bp1): 17 µM
- Binding to La (La [2]): No binding
- Kd (Igf2bp3): 52 µM
SMILES: O=C(c1ccc(Cn2cnnn2)cc1)N1CCCC(Nc2ccc3c(c2)OCO3)C1 (centres unmarked) [compound 7773]
- Effect on Igf2bp1-GFP-enhanced wound healing [3]: significantly inhibited
- Effect on activity of wild-type luciferase [4]: did not affect
- Steady state level of CD44 RNA (ES2 cells [5]; ES2, 20 μM 7773, 12 and 24 hours): strongly reduced after 12 hours, but appeared to recover after 24 hours
- Steady state levels of CD44, Kras, cMyc and SRF RNA (ES2 cells [5]; ES2, 20 μM 7773, 12 hours): all of the assayed RNAs were reduced
- Steady state levels of CD44, Kras, cMyc and SRF RNA (ES2 cells [5]; ES2, 20 μM 7773, 24 hours): 3 of the 4 RNAs showing similar or even enhanced reduction
- Levels of control RNAs that are not targets of Igf2bp1 (ES2 cells [5]; ES2, 24 hours): not significantly affected
- Kras protein level [6]: dose-dependent reduction
- Cell proliferation (ES2 cells [7]): remarkably unaffected
- Ability to form colonies in soft agar (H1299 cells): dramatically inhibited
